ChEMBL document CHEMBL1124698, “Squalene analogues containing isopropylidene mimics as potential inhibitors of pig liver squalene epoxidase and oxidosqualene cyclase” (J Med Chem, 1989)

Key:
Lanosterol synthase = molecular target: T1, Lanosterol synthase (Rattus norvegicus, UniProt P48450); assay: Inhibitory activity against Oxidosqualene-lanosterol cyclase in pig liver; NI-No inhibitory effect at 400 uM; design: species or system Sus scrofa; details: target entry is the homologue from another species
T1 sequence (P48450 whole entry): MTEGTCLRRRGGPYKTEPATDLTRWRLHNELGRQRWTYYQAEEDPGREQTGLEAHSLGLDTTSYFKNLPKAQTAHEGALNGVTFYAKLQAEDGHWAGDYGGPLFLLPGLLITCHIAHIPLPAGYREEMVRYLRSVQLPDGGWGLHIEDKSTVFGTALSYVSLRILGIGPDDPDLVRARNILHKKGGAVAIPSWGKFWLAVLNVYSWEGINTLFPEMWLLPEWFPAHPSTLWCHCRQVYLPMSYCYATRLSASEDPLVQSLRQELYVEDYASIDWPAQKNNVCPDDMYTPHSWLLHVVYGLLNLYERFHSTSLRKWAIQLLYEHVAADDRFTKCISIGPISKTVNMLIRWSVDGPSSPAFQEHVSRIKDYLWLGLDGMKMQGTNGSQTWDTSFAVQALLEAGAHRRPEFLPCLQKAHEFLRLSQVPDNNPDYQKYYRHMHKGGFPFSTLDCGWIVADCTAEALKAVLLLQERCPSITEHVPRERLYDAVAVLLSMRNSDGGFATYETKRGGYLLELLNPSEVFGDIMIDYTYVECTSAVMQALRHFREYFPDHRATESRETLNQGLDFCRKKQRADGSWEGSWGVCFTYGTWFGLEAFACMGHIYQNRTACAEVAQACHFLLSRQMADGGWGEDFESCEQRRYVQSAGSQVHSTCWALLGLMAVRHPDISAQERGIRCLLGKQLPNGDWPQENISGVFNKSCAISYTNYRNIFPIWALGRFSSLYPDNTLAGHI

Squalene monooxygenase = Squalene monooxygenase (Homo sapiens, UniProt Q14534); assay: Inhibitory activity against Squalene Epoxidase in pig liver; NI-No inhibitory effect at 400 uM; design: species or system Sus scrofa; details: target entry is the homologue from another species
Sequence of Squalene monooxygenase (Q14534 whole entry): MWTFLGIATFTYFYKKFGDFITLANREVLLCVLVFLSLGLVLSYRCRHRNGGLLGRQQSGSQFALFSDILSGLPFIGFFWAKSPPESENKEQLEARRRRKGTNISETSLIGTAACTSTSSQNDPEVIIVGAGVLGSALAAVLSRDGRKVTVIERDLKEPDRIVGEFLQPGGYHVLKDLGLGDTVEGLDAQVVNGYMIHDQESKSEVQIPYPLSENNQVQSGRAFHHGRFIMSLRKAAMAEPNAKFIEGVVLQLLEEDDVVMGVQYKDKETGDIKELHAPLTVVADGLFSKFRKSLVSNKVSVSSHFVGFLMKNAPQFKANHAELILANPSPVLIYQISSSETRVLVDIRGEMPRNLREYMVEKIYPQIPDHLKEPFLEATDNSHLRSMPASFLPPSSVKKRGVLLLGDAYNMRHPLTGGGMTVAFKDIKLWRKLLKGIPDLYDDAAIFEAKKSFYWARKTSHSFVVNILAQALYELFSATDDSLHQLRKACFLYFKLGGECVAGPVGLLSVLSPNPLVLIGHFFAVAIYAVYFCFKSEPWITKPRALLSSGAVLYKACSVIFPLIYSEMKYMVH

| SMILES | IC50 (Lanosterol synthase) | IC50 (Squalene monooxygenase) |
| --- | --- | --- |
| C=C=CCC/C(C)=C/CC/C(C)=C/CC/C=C(\C)CC/C=C(\C)CCC=C(C)C | No inhibition | No inhibition |
| C#CCC/C(C)=C/CC/C(C)=C/CC/C=C(\C)CC/C=C(\C)CCC=C(C)C | – | No inhibition |
